Patent US8822447B2, “Indazole compounds useful as ketohexokinase inhibitors” (Janssen Pharmaceutica NV, priority 2010, dated 2014)
Structures can show the parent of a compound that is named as a salt.

Target: KHK (Homo sapiens (Human), UniProt P50053)
Assay: In Vitro KHK Enzyme Assay (HTMS);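 note: primary screen measuring inhibition of KHK-catalysed conversion of D-fructose into fructose 1-phosphate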
Format: biochemical
Settings: 200 μM fructose, 100 μM ATP, 2 nM KHK, 60 min at 25° C.; Fructose-1-P detected by high throughput mass spectrometry
Method: An enzymatic assay was developed to measure KHK-mediated conversion of D-fructose to Fructose-1-P (F-1-P) using High Throughput Mass Spectroscopy (HTMS) as a means of product detection. This assay served as a primary screen to evaluate the ability to inhibit KHK enzyme activity and it has been adapted to high throughput mass spectrometry (HTMS, BioTrove RapidFire™) format for higher throughput.
The compounds to be tested were dosed in 12-points concentration from 511 μM to 0.5 μM. […] The assay was carried out in 384-well plate format.

Chain of KHK (P50053 whole entry): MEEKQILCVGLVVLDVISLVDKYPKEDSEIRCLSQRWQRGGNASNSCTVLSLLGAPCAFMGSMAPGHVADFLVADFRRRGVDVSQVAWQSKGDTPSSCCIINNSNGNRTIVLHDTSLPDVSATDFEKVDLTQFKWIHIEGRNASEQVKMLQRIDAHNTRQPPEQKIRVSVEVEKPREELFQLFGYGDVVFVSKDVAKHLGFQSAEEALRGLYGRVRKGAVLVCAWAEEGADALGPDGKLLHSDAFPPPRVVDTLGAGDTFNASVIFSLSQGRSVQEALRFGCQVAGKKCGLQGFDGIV

SMILES	IC50 [nM]
CCOc1cc(-c2ccc(N3CC(C)NC(C)C3)cc2)nc2c1c(CC)nn2-c1ccccc1 (stereo not shown) [Compound 104, 6-[4-(3,5-Dimethyl-piperazin-1-yl)-phenyl]-4-ethoxy-3-ethyl-1-phenyl-1H-pyrazolo[3,4-b]pyridine]	14700
Cc1nn(-c2ccccc2)c2cc(N3CCN(C4CNC4)CC3)ccc12 [Compound 62, 6-(4-(Azetidin-3-yl)piperazin-1-yl)-3-methyl-1-phenyl-1H-indazole hydrochloride]	1600
CCc1nn(-c2ccccc2)c2cc(N3CCC(N4CCNCC4)C3)ccc12 (stereo not shown) [Compound 43, 3-Ethyl-1-phenyl-6-(3-(piperazin-1-yl)pyrrolidin-1-yl)-1H-indazole hydrochloride]	2350
CSc1nn(-c2cccc(C)c2)c2cc(C3=CCNCC3)ccc12 [Compound 147, 3-Methylsulfanyl-6-(1,2,3,6-tetrahydropyridin-4-yl)-1-(3-methylphenyl)-1H-indazole]	30
CSc1nn(-c2ccccc2)c2cc(NCC3CCNCC3)ccc12 [Compound 112, (3-Methylsulfanyl-1-phenyl-1H-indazol-6-yl)-piperidin-4-ylmethyl-amine]	420
CSc1nn(-c2ccccc2)c2cc(N3CCNCC3)ccc12 [Compound 1, 3-(Methylsulfanyl)-1-phenyl-6-piperazin-1-yl-1H-indazole HCl salt]	560
CSc1nn(-c2ccccc2)c2cc(NC(=O)c3cccnc3)ccc12 [Compound 14, N-(3-(Methylthio)-1-phenyl-1H-indazol-6-yl)nicotinamide]	230
Cc1nn(-c2ccccc2)c2nc(C3CCN(C4CCNC4)CC3)nc(O)c12 (stereo not shown) [Compound 88, 3-Methyl-1-phenyl-6-(1-pyrrolidin-3-yl-piperidin-4-yl)-1H-pyrazolo[3,4-d]pyrimidin-4-ol hydrochloride]	1510
Cc1nn(-c2ccccc2)c2cc(N3CCC(N4CCNCC4)C3)ccc12 (stereo not shown) [Compound 61, 3-Methyl-1-phenyl-6-(3-(piperazin-1-yl)pyrrolidin-1-yl)-1H-indazole hydrochloride]	1010
CCc1nn(-c2ccccc2)c2cc(N3CCC4(CCNC4)C3)ccc12 (stereo not shown) [Compound 51, 6-(2,7-Diaza-spiro[4.4]non-2-yl)-3-ethyl-1-phenyl-1H-indazole hydrochloride]	1470
CCc1nn(-c2ccccc2)c2cc(N3CCN(C4CCNC4)C3=O)ccc12 (stereo not shown) [Compound 48, 1-(3-Ethyl-1-phenyl-1H-indazol-6-yl)-3-(pyrrolidin-3-yl)imidazolidin-2-one hydrochloride]	2370
Cc1nn(-c2ccccc2)c2nc(C3CCN(C(=O)C4CCNCC4)CC3)nc(O)c12 [Compound 87, [4-(4-Hydroxy-3-methyl-1-phenyl-1H-pyrazolo[3,4-d]pyrimidin-6-yl)-piperidin-1-yl]-piperidin-4-yl-methanone hydrochloride]	> 30000
CCc1nn(-c2ccccc2)c2cc(N3CCC(N4CCNCC4)CC3)ccc12 [Compound 36, 3-Ethyl-1-phenyl-6-(4-piperazin-1-yl-piperidin-1-yl)-1H-indazole hydrochloride]	890
CSc1nn(-c2ccccc2)c2cc(C(=O)c3ccc4ncn(C)c4c3)ccc12 [Compound 171, (3-Methyl-3H-benzoimidazol-5-yl)-(3-methylsulfanyl-1-phenyl-1H-indazol-6-yl)-methanone]	> 10000
Cc1nn(-c2ccccc2)c2cc(NC(=O)c3ccc4[nH]cnc4c3)ccc12 [Compound 66, N-(3-methyl-1-phenyl-1H-indazol-6-yl)-1H-benzo[d]imidazole-5-carboxamide]	160
COc1nn(-c2ccccc2)c2cc(N3CCN(C4CNC4)CC3)ccc12 [Compound 74, 6-(4-(Azetidin-3-yl)piperazin-1-yl)-3-methoxy-1-phenyl-1H-indazole hydrochloride]	5960
CCc1nn(-c2ccccc2)c2nc(C3CCN(c4cccnc4)CC3)nc(O)c12 [Compound 93, 3-Ethyl-1-phenyl-6-(3,4,5,6-tetrahydro-2H-[1,3′]bipyridinyl-4-yl)-1H-pyrazolo[3,4-d]pyrimidin-4-ol]	7900
CCc1nn(-c2ccccc2)c2cc(N3CCN(CC)CC3)ccc12 [Compound 55, 3-Ethyl-6-(4-ethylpiperazin-1-yl)-1-phenyl-1H-indazole]	11500
CSc1nn(-c2ccccc2)c2cc(C=CC3CCNCC3)ccc12 [Compound 153, 3-Methylsulfanyl-1-phenyl-6-(2-piperidin-4-yl-vinyl)-1H-indazole]	400
CCOc1cc(-c2ccc(N3CCNCC3)cc2)nc2c1c(CC)nn2-c1ccccc1 [Compound 102, 4-Ethoxy-3-ethyl-1-phenyl-6-(4-piperazin-1-yl-phenyl)-1H-pyrazolo[3,4-b]pyridine]	1430
CCc1nn(-c2ccccc2)c2nc(C3CCN(c4ccncc4)CC3)nc(O)c12 [Compound 92, 3-Ethyl-1-phenyl-6-(3,4,5,6-tetrahydro-2H-[1,4′]bipyridinyl-4-yl)-1H-pyrazolo[3,4-d]pyrimidin-4-ol]	1670

The remaining lines, values ahead:

IC50 [nM]	SMILES
9800	CCc1nn(-c2ccccc2)c2cc(-c3ccc(N4CCNCC4)cc3)ccc12 [Compound 52, 3-Ethyl-1-phenyl-6-(4-(piperazin-1-yl)phenyl)-1H-indazole hydrochloride]
4950	CSc1nn(-c2ccccc2)c2cc(N3CCN(C(=O)c4cccnc4)CC3)ccc12 [Compound 31, (4-(3-(Methylthio)-1-phenyl-1H-indazol-6-yl)piperazin-1-yl)(pyridin-3-yl)methanone]
590	CSc1nn(-c2ccccc2)c2cc(NC(=O)C3CCNC3)ccc12 (stereo not shown) [Compound 5, N-(3-(Methylthio)-1-phenyl-1H-indazol-6-yl)pyrrolidine-3-carboxamide hydrochloride]
670	CSc1nn(-c2ccccc2)c2cc(N3CCC(N4CCNCC4)CC3)ccc12 [Compound 20, 3-(Methylthio)-1-phenyl-6-(4-(piperazin-1-yl)piperidin-1-yl)-1H-indazole hydrochloride]
> 51000	CSc1nn(-c2ccc([N+](=O)[O-])cc2)c2cc(C(=O)N3CCNCC3)ccc12 [Compound 133, [3-Methylsulfanyl-1-(4-nitro-phenyl)-1H-indazol-6-yl]-piperazin-1-yl-methanone]
1650	CSc1nn(-c2ccc(F)cc2)c2cc(N3CCN(C4CCNCC4)CC3)ccc12 [Compound 135, 1-(4-Fluoro-phenyl)-3-methylsulfanyl-6-(4-piperidin-4-yl-piperazin-1-yl)-1H-indazole]
2820	CSc1nn(-c2ccccc2)c2cc(N3CCN(C4CNC4)CC3)ccc12 [Compound 21, 6-(4-(Azetidin-3-yl)piperazin-1-yl)-3-(methylthio)-1-phenyl-1H-indazole hydrochloride]
710	CSc1nn(-c2ccccc2)c2cc(OC3CCNCC3)ccc12 [Compound 121, 3-Methylsulfanyl-1-phenyl-6-(piperidin-4-yloxy)-1H-indazole]
680	CSc1nn(-c2ccccc2)c2cc(N3CCN(C4CCNCC4)CC3)ccc12 [Compound 23, 3-(Methylthio)-1-phenyl-6-(4-(piperidin-4-yl)piperazin-1-yl)-1H-indazole hydrochloride]
9830	CSc1nn(-c2ccc([N+](=O)[O-])cc2)c2cc(C(=O)NC3CCNCC3)ccc12 [Compound 110, 3-Methylsulfanyl-1-(4-nitro-phenyl)-1H-indazole-6-carboxylic acid piperidin-4-ylamide]
